Here are results for five molecules from publication PMC4949444 (Scientific Reports, 2016).

Data set [1] relates to 3NP-lesioned C57BL/6 mice. Nature of the data set: 3-nitropropionic acid (3NP) model of Huntington's disease. It counts as in vivo. The note with it: for COX-2 (2expΔΔct) / IL-6 (2expΔΔct) / TNF-α (2expΔΔct): striatum mRNA, mean ± SEM n=6; for COX-2 (2expΔΔct) / IL-6 (2expΔΔct) / TNF-α (2expΔΔct) / % GSH / % SOD activity / %Catalase activity: substance alone; for % GSH / % SOD activity / %Catalase activity: striatum, % of vehicle-treated control. As for the experimental part: Figure 7 VCE-003.2 is neuroprotective in 3NP-intoxicated mice. (a) Behavioural score was determined 12 hours after 3NP intoxication. Mice were treated with VCE-003.2 (20 mg/Kg) alone or combined with T0070907 (5 mg/kg) as indicated. Animals were also treated separately with either VCE-003.2 or T0070907 alone. Hind limb clasping, general locomotor activity, hind limb dystonia and kyphosis were rated from 0 to 2 based on severity (score 0 indicates normal function and 2 indicates the most severe affected function). Values are expressed as means ± SEM (n = 6). (b) Representative images of Nissl staining performed on coronal striatal brain sections from the same mice groups. Photomicrographs of NeuN (Bar size, 50 μm) Iba-1 and glial fibrillary acidic protein (GFAP) immunostained sections through the different group of mice are also shown. (c) Quantification of the different markers was performed with Image J software. Total average number of neurons (NeuN^+), microglia (Iba1^+) and astrocytes (GFAP^+) is shown. Values are expressed as means ± SEM (n = 6). *p < 0.05, **p < 0.01, ***p < 0.001 vs. Vehicle; ^#p < 0.05, ^##p < 0.01, ^###p < 0.001 vs. 3NP; †p < 0.05, ^††p < 0.01, ^†††p < 0.001 vs. the 3NP + VCE-003.2 group.
Mice were housed under standard conditions (12-h light/dark cycle) in groups with access to food and water ad libitum. All experiments were performed in accordance with European Union guideline and approved by the Animal Research Ethic Committee of Córdoba University (2014PI/017) (3NP model) and by the Animal Research Ethic Committee of Complutense University (CEA-UCM 73/2012) (QA model). Procedures were designed to minimize the number of animals used and their suffering. Excitotoxicity was induced by intrastriatal quinolinic acid (QA) administration (100 nmol in 1 μL PBS solution, unilaterally) as previously described[41] at the following coordinates: +0.6 posterior to bregma, +1.85 medio-lateral and -2.7 dorso-ventral to dura, in 12-week-old CD1 male mice (Harlan Ibérica, Barcelona, Spain). Pharmacological manipulation with VCE-003.2 (10 mg/kg body weight) was performed i.p. daily in 2% Tween 20 and 3% DMSO in saline buffer until sacrifice. Control animals received the corresponding vehicle injections. Motor function was assessed by RotaRod analysis conducted with acceleration from 4 to 40 rpm over a period of 570 s in an LE8200 device (Harvard Apparatus, Barcelona, Spain). […] 3NP-treated animals and their respective non-lesioned controls (injected with PBS) were used for pharmacological studies with VCE-003.2. Treatments consisted of 4 i.p. injections every 24 h with 20 mg/kg VCE-003.2 or vehicle (4% DMSO plus 6,2% Tween 20 in saline buffer), with the first and the last injections 30 min before the first and the last injections of 3NP, respectively. In some experiments, mice received a combination of VCE-003.2 and the PPARγ antagonist T0070907 (5 mg/kg) injected 15 minutes before VCE-003.2. In 3NP-lesioned mice, motor activity, hindlimb clasping, dystonia, and truncal dystonia were evaluated following previously described procedures. All behavioural tests were conducted prior to drug injections to avoid acute effects of the compounds under investigation and all animals were euthanized 12 h after the last injection of 3NP and their brains removed. The right hemispheres were used to dissect the striatum which was frozen in RNAlater (Sigma-Aldrich) and stored at −80 °C for biochemical analyses. The left hemispheres were fixed in fresh 4% paraformaldehyde (in 0.1 M PBS) for 48 h at 4 °C and embedded in paraffin wax for staining and immunohistochemical analysis. In all experiments, at least 6 animals were used per experimental group.
Free floating coronal brain slices ([…]) were processed as previously described. […]

The test system of another data set is Keap1/Nrf2 pathway. Put plainly: Keap1/Nrf2 pathway activation (unpublished results).
For another data set, the system named is 3NP-lesioned mice. The note with it: cited from earlier work.
Data set [2] has as its system N2a cells. Nature of the data set: N2a cytotoxicity assay (MTT). The note with it: 24 hours. The data set is classed as cell-based. As for the experimental part:
Figure 1 VCE-003.2 synthesis and characterization. (a) Schematic representation of VCE-003.2 synthesis. […] The indicated concentrations were tested and results were plotted to obtain the polynomial trend on a logarithmic range. IC50 values are indicated within the graph. […]. HEK293 cells were co-transfected with GAL4-PPARγ and GAL4-luc and incubated with the indicated compound concentrations for 6 hours prior to luciferase activity determination. Results are expressed as the fold induction ± S.D. relative to untreated control. (d) N2a cells were incubated with VCE-003 and VCE-003.2 as indicated during 24 hours and cell viability was determined by the MTT assay. Results are expressed as percentage of cell viability against the negative control (100%). (e) N2a cells were pre-treated with the compounds for 30 min and incubated during 24 h with 15 mM glutamate and cell viability determined by MTT. Results are expressed as percentage of cell viability against the negative control (100%). All experiments are shown as mean ± S.D. from at least three independent experiments. Statistics: *^,#,†p < 0.05, **^,##,††p < 0.01 and ***^,###p < 0.001. […] | Briefly, N2a cells were seeded at a density of 1 × 10^3 cells/well in 96-well plates, treated with increasing concentrations of VCE-003 or VCE-003.2 for 24 hours and cell viability was measured by the MTT method. […]. […]

Data set [3] can be described thus: Cysteamine recovery assay (thiol trapping). As for the experimental part: cysteamine to form polar and not extractable adducts.
(§1) Determination of ROS: N2a cells were seeded at 25x 10^3 cells/ml in 96-well plates and incubated with 0.25 ȝM 5-(and-6 )-chloro meth yl-2ƍ,7ƍ-dichlorodihydrofluorescein diacetate acet yl ester (C M-H 2 DCFDA) for 20 minutes at 37°C. Then, the cells were treated with either VCE-003 or VCE-003.2 for 2 hours. Cells exposed to pro-oxidant tert-Butyl h ydroperoxide (TBHP) were used as positive control. H 2 DCFDA oxidation was detected using an Incuc yteTM Live-Cell Imaging S ystem (Hertfordshire, UK).
(§2) Nrf2 transcriptional assay: To study Nrf2 transcriptional activity N2a cells were seeded (105/ml) in 24-well plates and transientl y transfected with the plasmid NQO1-ARE-Luc using Roti©-Fect following the manufacturer’s instructions (Carl Roth, Karlsruhe, German y). After 24 hours, cells were incubated wi th the compounds at the concentrations indicated during 6 hours and the luciferase activit y was determined using an Autolumat LB 953 (EG&G Berthold, Bad Wildbad, Germany). Protein content was determined b y the Bradford method to calculate R LU/Pg of protein and the results were expressed as a fold induction over untreated cells.

The subject of data set [4] is N2a cells. Nature of the data set: Reactive oxygen species production in N2a cells (CM-H2DCFDA). It counts as cell-based. To be noted: 2 hours. As to the method:
as §1
Supplementary Figure S1. Non-elect rophilic activity for VCE-003.2. (a) Reactive ox ygen species production. N2a cells were stained with CM-H2DCFDA and treated with VCE-003 or VCE-003.2 for 2 hours. Then, reactive ox ygen sp ecies were measured b y In cu c yt e TM Liv e-Cell Im agin g S ystem. Results are ex pressed as m ean of t otal integrated intensity (ROS positive cells) ± S.D. (b) Effect on Nrf2 transcriptional activity.
VCE-003 treatment vers us Vehicle treated cells.

The next data set concerns Nrf2 pathway. Nature of the data set: Nrf2 transcriptional assay (NQO1-ARE-Luc) in N2a cells. The data set is classed as cell-based. The note with it: 6 hours. As to the method: as §2
Supplementary Figure S1. Non-elect rophilic activity for VCE-003.2. (a) Reactive ox ygen species production.
In cu c yt e TM Liv e-Cell Im agin g S ystem. Results are ex pressed as m ean of t otal integrated intensity (ROS positive cells) ± S.D. (b) Effect on Nrf2 transcriptional activity. N2a cells were transientl y trans fected with the NQO1-ARE-Luc plasmid and incubated with the indicated compound concentrations for 6 hours prior to luciferase activit y determination.
Results are expressed as the fold induction ± S.D. relative to untreated control. All the results are representative of at least three independent experiments. Statistics: **p<0.01 VCE-003 treatment vers us Vehicle treated cells.

As to `O=C(O)CC[N+](=O)[O-]` [3NP, 3-nitropropionic acid, reference compound], in data set [1] (mice given the substance alone), the “behavioural score, substance alone” value is “high scores in hindlimb clasping, locomotor activity, hindlimb dystonia and kyphosis”; the “number of neurons in the striatum (Nissl, NeuN), substance alone” value was “reduced the number of neurons in the striatum”. Further, in data set [1], the “COX-2 (2expΔΔct)” value is given as 4.69 ± 0.09^* 2expΔΔct, the “IL-6 (2expΔΔct)” value is listed as 4.28 ± 0.08^* 2expΔΔct, the “TNF-α (2expΔΔct)” value is 5.19 ± 0.327^** 2expΔΔct and the “% GSH” value amounted to 67.16 ± 5.06%. In data set [1], the “% SOD activity” value is listed as 56.56 ± 1.05^** % and the “%Catalase activity” value is listed as 58.85 ± 2.17^*** %.

Turning to `C=C(C)[C@@H]1CCC(C)=C[C@H]1C1=C(O)C(=O)C(CCCCC)=CC1=O` [CBD-hydroxy-quinone], the “activation of the Keap1/Nrf2 pathway” value in the data set with Keap1/Nrf2 pathway is “activates the Keap1/Nrf2 pathway”.

As for `CCCCCc1cc(O)c(C/C=C(\C)CCC=C(C)C)c(O)c1` [CBG, cannabigerol], in the data set on 3NP-lesioned mice, the “levels of GSH in the brain” value was “restores the levels of GSH in the brain of 3NP-lesioned mice”.

As to `O=C(Nc1ccncc1)c1cc([N+](=O)[O-])ccc1Cl` [T0070907, reference compound], in data set [1] (mice given the substance alone), the “behavioural score, substance alone” value was “Neither VCE-003.2 nor T0070907 alone influenced the behavior of the animals”. Moreover, in data set [1], the “COX-2 (2expΔΔct)” value is recorded as 1.45 ± 0.82 2expΔΔct, the “IL-6 (2expΔΔct)” value is 1.57 ± 0.51 2expΔΔct, the “TNF-α (2expΔΔct)” value is reported as 1.54 ± 0.75 2expΔΔct and the “% GSH” value was 115.82 ± 11.23%. For the same molecule, in data set [1], the “% SOD activity” value was determined as 97.61 ± 27.44% and the “%Catalase activity” value came out at 92.18 ± 4.1%.

`CCCCCC1=CC(=O)C(C/C=C(\C)CCC=C(C)C)=C(O)C1=O` [VCE-003, reference compound]: the “cell viability / cytotoxic activity” value with N2a cells [2] is given as “clear cytotoxic activity at the highest concentrations tested”. For the same molecule, the “recovery after treatment with cysteamine (thiol-trapping reactivity)” value in data set [3] was “undetectable in the residue”. Also, in the data set on N2a cells [4], the “induction of reactive oxygen species (ROS)” value is recorded as “induced reactive oxygen species (ROS)”. Moreover, in the data set on Nrf2 pathway, the “activation of the Nrf2 pathway” value was “activated the Nrf2 pathway”.
